For one data set, the system named is 3T3-L1 adipocytes. Nature of the data set: Lipogenesis in 3T3-L1 adipocytes. The class given is cell-based, mouse. As to conditions: 10-1000 μM. Here is the method:
3T3-L1 fibroblasts were maintained in Dulbecco's modified Eagle's medium (DMEM) with 25 mM glucose plus 10% fetal bovine serum (FBS). Following 2 days at confluence, differentiation was initiated by the addition of DMEM containing 10% FBS, 167 nM insulin, […] dexamethasone, and 0.5 mM isobutylmethylxanthine. Three days later, the medium was replaced with DMEM plus 10% FBS and 167 nM insulin. After 2 more days, the medium was switched to DMEM plus 10% fetal bovine serum. Adipocytes were used 6-14 days after completion of the differentiation protocol, when >90% of the cells expressed the adipocyte phenotype. Prior to experiments, cells were washed two times with DMEM medium containing 5 mM glucose, 0.2% bovine serum albumin, 25 mM Hepes (pH 7.4), 100 units/ml penicillin, 100 units/ml streptomycin and 0.29 mg/ml glutamine, and were incubated in the same medium for 2 h. Glycogen and lipid synthesis were measured in 24-well dishes. […] The lipids were then extracted overnight with 5 ml of Betafluor (National Diagnostics), and glucose incorporation into lipid was measured by scintillation counting. 400 μl of the cell suspension was added to 600 μl of 50% KOH, and glycogen was precipitated and radioactivity was counted by a liquid scintillation counter

The test system of a further data set is AGS. Description: Cell proliferation / cell death assay, AGS. It is filed as cell-based, human. As to conditions: 10-100 μM. As to the method:
(§1) Human pancreatic cancer cell lines (Panc-1, MiaPaca2, BXPC3, Aspc 1), human hepatoma cell line (HuH7), human gastric cancer cell lines (AGS, MKN45), human colon cancer cell line (CoCM-1), human mammary cancer cell line (MCF-7), human neuroblastoma (SH-SY5Y), human prostate cancer cells (PC3), and murine Ehrlich ascites cancer cells and mouse 3T3-L1 fibroblasts were obtained from American Type Culture Collection (Rockville, Md., USA). The cancer cells were cultured in RPMI 1640 containing 10% fetal calf serum. Cultures were maintained at 37° C. in a humidified atmosphere of 5% CO2.
(§2) Cell proliferation assays were performed with the CellTiter 96 AQueous One Solution Cell Proliferation Assay kit according to the manufacturer's instructions (Promega, Madison, Wis., USA). Briefly, 5×10^3 cells/well in medium were placed onto 96-well plates. IGs were added to cellular cultures at final concentrations of 0, 1, 10, and 100 μM. Cultures were incubated for 3 days or 7 days and then added to 20 μL/well of CellTiter 96 AQueous One Solution Reagent, which contains a tetrazolium compound, 3-(4,5-dimethylthiazol-2-yl)-5-(3-carboxymethoxyphenyl)-2-(4-sulfophenyl)-2H-tetrazolium, an inner salt; MTS was added to the culture medium. After incubating the plate for 1 h in a CO2 incubator, absorbance at 490 nm was recorded with a 96-well plate reader.

The next data set relates to Aspc1. Description: Cell proliferation / cell death assay, Aspc1. The class given is cell-based, human. The note with it: Aspc1, 10-100 μM. Here is the method:
as §1, §2

The test system of another data set is STZ-diabetic mice. Description: Intraperitoneal IG1 for 7 days, STZ-diabetic mice. It is filed as in vivo. Here is the method: (§3) Male C57BL/6 mice were housed individually and given free access to a standard diet (65% carbohydrate, 4% fat, and 24% protein) or a high-fat diet (Quick Fat; 60.2% carbohydrate, 15.3% fat, and 24.5% protein; Clea Japan, Tokyo, Japan), starting at 5 weeks of age, for 5 weeks. Db/db mice also were housed individually and given free access to a standard diet. C57BL/6 mice at 5 weeks of age, were received a single dose of 75 μg/g body weight streptozotoxin (STZ). 7 days after injections, the mice, whose fasting plasma glucose concentrations were over 400 mg/dl, were used as STZ-diabetic mice. […]
(§4) Frozen livers were homogenized, and triglycerides were extracted with CHCl3:CH3OH (2:1, vol:vol), dried and resuspended in 2-propanol (17). Triglyceride contents were measured using Lipidos liquid (TOYOBO, Osaka, Japan). […] Glycogen content was determined by the phenol-sulfuric acid spectrophotometric method at 490 nm (18) and expressed as micrograms of glycogen per milligram of liver.
(§5) Blood glucose was assayed with Glucose Ace (Sanwa Kagaku Kenkyusho, Nagoya, Japan). Serum insulin and leptin were determined with ELISA kits (Morinaga Institute of Biological Science, Yokohama, Japan). Serum adiponectin and tumor necrosis factor-α (TNF-α) concentrations were measured with an ELISA kit (Ohtsuka Pharmaceutical, Tokyo, Japan) and a TNF-α assay kit (Amersham Biosciences, Uppsala, Sweden), respectively. […]

The next data set deals with Panc-1 cells. Description: ATP contents in Panc-1 cells. The class given is cell-based, human. The note with it: 1 hour incubation in serum free media. As to the method: as §1
Data set [1] has as its system human neuroblastoma (SH-SY5Y). Nature of the data set: Cell proliferation / cell death assay, SH-SY5Y. It is filed as cell-based. The note with it: 10-100 μM. As to the method:
as §1
as §2, with “Cultures were incubated for 3 days or 7 days and then added to 20 μL/well” left out

For another data set, the system named is db/db mice. Nature of the data set: Intraperitoneal IG1 for 7 days, db/db mice. The class given is in vivo. The note with it: intraperitoneal for every 7 days, data not shown. Here is the method:
as §3, §4, §5

For data set [2], the system named is murine Ehrlich ascites cancer cells. Description: Cell proliferation / cell death assay, Ehrlich ascites cancer cells. As to conditions: 10-100 μM. It is filed as cell-based. Here is the method: as §1, §2
Data set [3] concerns human normal cultured cells. Description: Proliferation of human normal cultured cells. The class given is cell-based. As to conditions: 1-100 μM, data not shown. Here is the method: Human primary culture cells, dermal fibroblasts, epidermal keratinocytes and umbilical vein endothelial cells were purchased from Cell Applications (San Diego, Calif., USA) and cultured according to the manufacturer's instructions.
as §2

As to `CCCCCCCCCCCCCCCC(=O)O[C@@H]1C(O)C(O)[C@H](O)C(O[C@H]2OC(CO)[C@@H](O)[C@H](O)C2N)C1O` (stereo in doubt) [IG1, 2-Amino-2-deoxy-α-D-glucopyranosyl-(1→6)-2-palmitoyl-D-myo-inositol], the lipogenesis result in the data set with 3T3-L1 adipocytes was “stimulates”. The “rapid cancer cell death” value (in the data set with AGS; in the data set on Aspc1; in data set [1]; in [2]) was “rapid cancer cell death was demonstrated” in each case. Besides, the “hepatic and muscular glycogen synthesis” value is “increases hepatic and muscular glycogen synthesis” with STZ-diabetic mice (intraperitoneal 7 days, data not shown); “increases hepatic and muscular glycogen synthesis” in the data set on db/db mice. Further, in the data set on STZ-diabetic mice (intraperitoneal, 0.3 mg per mice, for every 7 days), the “fasting plasma glucose concentrations” value is “significantly reduced fasting plasma glucose concentrations”. In addition, in the data set on Panc-1 cells, the ATP contents result is on record as “does not affect ATP contents”. Further, the glucose tolerance result in the data set with db/db mice is “improves glucose tolerance”. For the same compound, the “proliferation of human normal cultured cells” value in [3] was “did not affect the proliferation”.

Source of the values: patent US20100197625A1, “SYNTHETIC LIPOPHILIC INOSITOL GLYCANS FOR TREATMENT OF CANCER AND GLUCOSE-METABOLISM DISORDERS” (priority 2006, published 2010).
